Test results from paper PMC6853232, “Discovery and evaluation of novel synthetic 5-alkyl-4-oxo-4,5-dihydro-[1,2,4]triazolo[4,3-a]quinoxaline-1-carbox-amide derivatives as anti-inflammatory agents” (Journal of Enzyme Inhibition and Medicinal Chemistry, 2019).
Marks after values point to notes of the source that are not given here.

System: RAW264.7 cells
Assay: MTT assay for cell viability
Assay type: cell-based, mouse
Conditions: LPS 1 μg/mL
Protocol: The RAW 264.7 mouse macrophage cell line was obtained from the China Cell Line Bank (Beijing, China). Cells were cultured in complete medium (DMEM supplemented with 10% heat-inactivated FBS, 3 mM glutamine and antibiotics (100 U/mL penicillin and 100 U/mL streptomycin)) at 37 °C in a humidified incubator containing 5% CO2 and 95% air. […]
Cell viability studies induced by synthesised compounds were evaluated by 3-(4,5-dimethylthiazol-2-yl)-2,5-diphenyltetrazolium bromide (MTT) assay. RAW264.7 macrophages were seeded in 96-well plates at a density of 5 × 10^5 cells/mL in complete medium and incubated for 24 h (100 µL/well). Then the cells were treated with different concentrations of synthesised compounds for 24 h. 150 µL MTT (5 g/L in PBS) was added to each well and the cells were further incubated for 4 h. The supernatant was removed and the cells were lysed with 150 µL/well DMSO. The optical density was measured at 570 nm on a microplate reader (Thermo Scientific, MA, USA).

lipopolysaccharide [LPS, reference compound]
Cell viability (%): 98.60 ± 2.12^a %
